Test results taken from US12661345B2, “Compositions for the treatment of hypertension” (The George Institute for Global Health, priority 2017, dated 2026).
Read-outs that look alike come from different tables or passages of the source.

What was measured:
LDL = LDL laboratory test in the 3×3 factorial trial; assay type: in vivo, human; conditions: Week 12 v/s Baseline
Method: There was a 4 week screening period and another 4-week post study drug observational period.
Group 2 received the low-dose BP lowering combination and simvastatin (i.e., telmisartan 20 mg+amlodipine 2.5 mg+simvastatin). Group 3 received the low-dose BP lowering combination and placebo (i.e., telmisartan 20 mg+amlodipine 2.5 mg+placebo). […] Group 9 received double placebo.
Change in DBP and SBP • 2. Change in LDL Secondary Outcomes: • 1. Tolerability: • a. […] Difference between groups in participant withdrawals from treatment • 2. Safety: Percentage with any severe adverse event (SAE) • 3. Medication adherence: self-reported measures, pill counts BP Measurement:
Potassium (K+), sodium (Na+), serum creatinine and LDL were measured at screening and at the 12-week end of treatment follow-up visit.
All analyses of study outcomes were conducted according to the principle of intention-to-treat. The analyses of continuous outcomes such SBP and LDL-cholesterol at 12 weeks was performed using ANCOVA including the treatment arm and baseline values as a covariate. Additional analyses included interim measurements in a longitudinal model including treatment arm, visit, and treatment by visit interaction as well as the baseline measurement. Within-patient correlations were modelled using generalized estimating equations. A similar approach was applied to binary endpoints with log-binomial regression used in place of linear regression. There were also pre-defined subgroup analyses, baseline BP, baseline LDL, gender and age.

[1] = tested on: participants with migraine; conditions: human, in vivo

**Q.** Which “Change in LDL from baseline to 12 weeks Mean (SD)” value (LDL) does the source give for `CC(C)NCC(O)COc1cccc2ccccc12` (centres unmarked) [Propranolol, propranolol] here?
**A.** Its value is 10 −0.9 (1.03) mmol/l.

**Q.** And the “Change in LDL from baseline to 12 weeks Q1” value (LDL)?
**A.** Its value is -1.3 mmol/L.

**Q.** And the “Change in LDL from baseline to 12 weeks Q2” value (LDL)?
**A.** Its value is -0.7 mmol/L.

**Q.** What about the “Change in LDL from baseline to 12 weeks Q3” value (LDL) of the same compound?
**A.** Its value is -0.2 mmol/L.

**Q.** And the “Change in LDL from baseline to 12 weeks max” value (LDL)?
**A.** The value was 0 mmol/L.

**Q.** And the “Change in LDL from baseline to 12 weeks min” value (LDL)?
**A.** Its value is -3 mmol/L.

**Q.** And the “Discontinuing the study (n/N)” value ([1]; 4 week)?
**A.** Its value is 0/10.

**Q.** And the “Discontinuing the study (percent)” value ([1]; 4 week)?
**A.** The value was “(0.0%)”.

**Q.** What about the “Discontinuing the study (n/N)” value ([1]; 8 week) of the same compound?
**A.** The value was 0/10.

**Q.** What about the “Discontinuing the study (percent)” value ([1]; 8 week) of the same compound?
**A.** The value was “(0.0%)”.

**Q.** What about the “Discontinuing the study (n/N)” value ([1]; 12 week) of the same compound?
**A.** The value was 0/10.

**Q.** What about the “Discontinuing the study (percent)” value ([1]; 12 week) of the same compound?
**A.** Its value is “(0.0%)”.

**Q.** And the “Deceased (n/N)” value ([1]; 16 week)?
**A.** Its value is 0/10.

**Q.** And the “Deceased (percent)” value ([1]; 16 week)?
**A.** The value was “(0.0%)”.

**Q.** What does the source list for `CCC(C)(C)C(=O)O[C@H]1C[C@@H](C)C=C2C=C[C@H](C)[C@H](CC[C@@H]3C[C@@H](O)CC(=O)O3)[C@H]21` [Simvastatin, simvastatin]?
**A.** Change in LDL from baseline to 12 weeks Mean (SD) (LDL): 9 −1.0 (0.38) mmol/l; Change in LDL from baseline to 12 weeks Q1 (LDL): -1.2 mmol/L; Change in LDL from baseline to 12 weeks Q2 (LDL): -1.0 mmol/L; Change in LDL from baseline to 12 weeks Q3 (LDL): -0.8 mmol/L; Change in LDL from baseline to 12 weeks max (LDL): -1 mmol/L; Change in LDL from baseline to 12 weeks min (LDL): -2 mmol/L
